Data from US10149876B2, “Tripterygium wilfordii extracts to overcome chemotherapy resistance” (WESTERN UNIVERSITY OF HEALTH SCIENCES, priority 2012, dated 2018).
Values joined by “and” are separate entries in the source; they are usually repeats but may differ in a detail not shown here. Equal entries are not always repeated. Where two headings read alike, the source gives them in different places.

Columns and labels:
[1] = tested on: DU145 cells; experiment: SRB cell viability assay, docetaxel-sensitive DU145 cells; format: cell-based; details: Homo sapiens; for viability at 1 pM: docetaxel 0.001 nM 72 h; for viability at 0.000333 µM: docetaxel 0.333 nM 72 h; for viability at 0.001 µM: docetaxel 1 nM 72 h; for viability at 0.00333 µM: docetaxel 3.33 nM 72 h; for viability at 0.01 µM: docetaxel 10 nM 72 h; for viability at 0.0333 µM: docetaxel 33.3 nM 72 h; for viability at 0.1 µM: docetaxel 100 nM 72 h; for IC50: DU-145
Method: The chemotherapeutic drugs that were tested for chemosensitization in combination with LTG-E were docetaxel, daunorubicin, Herceptin®, and lapatinib. […] Table 17 also contains the serially-diluted concentrations of drugs that each cell line was tested against.
Using the methods described in Example 2, the chemosensitizing effect of LGT-E pretreatment on docetaxel-treated DU145 cells was studied. […] Table 20 reports control data obtained from DU145 cells that were not pre-treated with LGT-E. FIG. 7 summarizes the data of Tables 19 and 20 in a graphical format.

[2] = tested on: PC3-TxR cells; experiment: SRB cell viability assay, docetaxel-resistant PC3-TxR cells; details: Homo sapiens
Method: The CE is expressed as: CE=IC50D/IC50E+D. IC50D is the IC50 of the chemotherapeutic drug against which an test extract (or other compound suspected of having a CE) is evaluated. IC50E+D is the IC50 of the combination of the test extract and chemotherapeutic drug. The CE of a test extract or compound can vary depending on the type of cell and the specific chemotherapeutic or class or combination of therapeutics that are being evaluated.
The variance between those concentrations can be quantitated by calculating the Chemosensitizing Utility Index (CUI) value for a test extract or compound. The CUI is expressed as: CUI=CE×(IC50E/ConE). […] ConE is the concentration of an extract or compound that is required to produce desirable CE.
CE and CUI values were obtained individually for the aqueous, ethanol, and chloroform extracts that are described above. […] In the Examples, the ethanol, is referred to as Lei Gong Teng extract (LGT-E).
PC3-TxR cells were plated into sterile, F-bottom Cellstar® 96 well cell culture plates with lids (Cat #655180, Purchased from Greiner Bio-one, Monroe, N.C.) by placing into each well, 100 μl of medium containing 3000 cells in RPMI 1640 supplemented with 10% fetal bovine serum (Thermo Scientific, Logan, Utah) and a solution of penicillin (100 U/ml) and streptomycin (100 μg/ml) (Life Technologies Grand Island, N.Y.). The cells were at passage 52 at the time of plating. Triplicate wells were assigned to each experimental condition tested, and a 24 hour recovery period for the cells following the seeding of the wells was allowed. During the recovery period, the cells were incubated at 37° C. and 5% CO2.
The LGT-E was prepared by adding an appropriate amount of LGT-E powder to DMSO to form a 500 mg/ml stock solution. The stock solution was alternately vortexed and sonicated until the LGT-E powder went into solution. The stock solution was diluted in RPMI 1640 medium (Mediatech, Manassas, Va., or Life Technologies Grand Island, NY) to reach the desired concentrations of LGT-E (e.g., 12, 25, or 60 μg/ml).
Pretreatment of the cells with LGT-E was carried out by aspirating the media from the wells, followed by adding 50 μl of LGT-E solution containing concentrations of either 12 or 25 μg/ml of LGT-E solution and incubation of the cells for two hours under conditions of 37° C. and 5% CO2.
Media was aspirated from each well, and replaced with a 10% solution of cold trichloroacetic acid (TCA) (Cat #: T6399, purchased from Sigma-Aldrich), and incubated for one hour at 4° C. After the TCA incubation, the TCA solution was aspirated, and the cells were washed five times with tap water. After removing the last wash, the plates were left with lids off at room temperature until the surfaces were dry, which took one to two hours. Then 50 μl of a 0.4% solution of sul-forhodamine B (SRB) sodium salt (Cat #: S9012, purchased from Sigma-Aldrich) was added to each well and the plates were incubated at room temperature for 20 to 30 minutes. Afterwards, the wells were washed five times with a 1% acetic acid solution in 10 mM TRIS base (Cat#: 161-0719, purchased from Bio-Rad Laboratories, Hercules, Calif.). The plates were subsequently left to dry for several hours or overnight. SRB that remained in the dried wells was solubilized by adding 100 μl of SRB solubilization solution (10 mM TRIS base) to each well, and placing the plates either on a gently-moving shaker or letting the plates remain stationary at room temperature until the SRB dissolves, which takes about five to ten minutes. The amount of SRB in each well, which correlated directly to the number of living cells at fixation, was determined spectrophotometrically at an absorbance of 565 nm by a microplate reader.

[3] = DU-145, read-out: % viable, DU145, LGT-E 50 μg/ml pre-treatment
[4] = DU-145, read-out: % viable, DU145, no LGT-E pre-treatment

## CC(=O)O[C@@]12CO[C@@H]1C[C@H](O)[C@@]1(C)C(=O)[C@H](O)C3=C(C)[C@@H](OC(=O)[C@H](O)[C@@H](NC(=O)OC(C)(C)C)c4ccccc4)C[C@@](O)([C@@H](OC(=O)c4ccccc4)[C@H]21)C3(C)C [Docetaxel, docetaxel]
[1]; [3]
  viability at 1 pM: 100%
  viability at 0.000333 µM: 100%
  viability at 0.001 µM: 97.4%
  viability at 0.00333 µM: 54%
  viability at 0.01 µM: 23.9%
  viability at 0.0333 µM: 9.6%
  viability at 0.1 µM: 9.3%
[1]; [4]
  viability at 1 pM: 100%
  viability at 0.000333 µM: 101%
  viability at 0.001 µM: 100%
  viability at 0.00333 µM: 86.9%
  viability at 0.01 µM: 44.4%
  viability at 0.0333 µM: 24.1%
  viability at 0.1 µM: 21.8%
[1]; DU-145, read-out: % viable, DU145, no LGT-E pre-treatment, docetaxel 0.1 nM 72 h
  viability at 0.0001 µM: 100%
[1]; read-out: IC50 of drug when cells pre-treated with Chemosensitizing Agent before drug treatment
  IC50: 3.39 nM and 0.00274 µg/mL
[1]; read-out: IC50 of drug when cells treated with drug only
  IC50: 6.65 nM and 0.00537 µg/mL
[2]; read-out: % viable, PC3-TxR, LGT-E 12 μg/ml pre-treatment, docetaxel 0.001 nM 72 h
  viability at 1 pM: 100%
[2]; read-out: % viable, PC3-TxR, LGT-E 12 μg/ml pre-treatment, docetaxel 0.1 nM 72 h
  viability at 0.0001 µM: 105%
[2]; read-out: % viable, PC3-TxR, LGT-E 12 μg/ml pre-treatment, docetaxel 0.333 nM 72 h
  viability at 0.000333 µM: 103%
[2]; read-out: % viable, PC3-TxR, LGT-E 12 μg/ml pre-treatment, docetaxel 1 nM 72 h
  viability at 0.001 µM: 97.8%
[2]; read-out: % viable, PC3-TxR, LGT-E 12 μg/ml pre-treatment, docetaxel 3.33 nM 72 h
  viability at 0.00333 µM: 62.4%
[2]; read-out: % viable, PC3-TxR, LGT-E 12 μg/ml pre-treatment, docetaxel 10 nM 72 h
  viability at 0.01 µM: 21.2%
[2]; read-out: % viable, PC3-TxR, LGT-E 12 μg/ml pre-treatment, docetaxel 33.3 nM 72 h
  viability at 0.0333 µM: 7%
[2]; read-out: % viable, PC3-TxR, LGT-E 12 μg/ml pre-treatment, docetaxel 100 nM 72 h
  viability at 0.1 µM: 4.1%
[2]; read-out: % viable, PC3-TxR, LGT-E 25 μg/ml pre-treatment, docetaxel 0.001 nM 72 h
  viability at 1 pM: 100%
[2]; read-out: % viable, PC3-TxR, LGT-E 25 μg/ml pre-treatment, docetaxel 0.1 nM 72 h
  viability at 0.0001 µM: 99.9%
[2]; read-out: % viable, PC3-TxR, LGT-E 25 μg/ml pre-treatment, docetaxel 0.333 nM 72 h
  viability at 0.000333 µM: 99.1%
[2]; read-out: % viable, PC3-TxR, LGT-E 25 μg/ml pre-treatment, docetaxel 1 nM 72 h
  viability at 0.001 µM: 82.5%
[2]; read-out: % viable, PC3-TxR, LGT-E 25 μg/ml pre-treatment, docetaxel 3.33 nM 72 h
  viability at 0.00333 µM: 34.6%
[2]; read-out: % viable, PC3-TxR, LGT-E 25 μg/ml pre-treatment, docetaxel 10 nM 72 h
  viability at 0.01 µM: 9.4%
[2]; read-out: % viable, PC3-TxR, LGT-E 25 μg/ml pre-treatment, docetaxel 33.3 nM 72 h
  viability at 0.0333 µM: 4.9%
[2]; read-out: % viable, PC3-TxR, LGT-E 25 μg/ml pre-treatment, docetaxel 100 nM 72 h
  viability at 0.1 µM: 4.7%
[2]; read-out: % viable, PC3-TxR, no LGT-E pre-treatment (Table 2), docetaxel 0.001 nM 72 h
  viability at 1 pM: 100%
[2]; read-out: % viable, PC3-TxR, no LGT-E pre-treatment (Table 2), docetaxel 0.1 nM 72 h
  viability at 0.0001 µM: 98.5%
[2]; read-out: % viable, PC3-TxR, no LGT-E pre-treatment (Table 2), docetaxel 0.333 nM 72 h
  viability at 0.000333 µM: 100%
[2]; read-out: % viable, PC3-TxR, no LGT-E pre-treatment (Table 2), docetaxel 1 nM 72 h
  viability at 0.001 µM: 105%
[2]; read-out: % viable, PC3-TxR, no LGT-E pre-treatment (Table 2), docetaxel 10 nM 72 h
  viability at 0.01 µM: 77%
[2]; read-out: % viable, PC3-TxR, no LGT-E pre-treatment (Table 2), docetaxel 33.3 nM 72 h
  viability at 0.0333 µM: 29.7%
[2]; read-out: % viable, PC3-TxR, no LGT-E pre-treatment (Table 2), docetaxel 100 nM 72 h
  viability at 0.1 µM: 11.3%
[2]; read-out: % viable, PC3-TxR, no LGT-E pre-treatment (Table 4), docetaxel 0.001 nM 72 h
  viability at 1 pM: 100%
[2]; read-out: % viable, PC3-TxR, no LGT-E pre-treatment (Table 4), docetaxel 0.1 nM 72 h
  viability at 0.0001 µM: 98.7%
[2]; read-out: % viable, PC3-TxR, no LGT-E pre-treatment (Table 4), docetaxel 0.333 nM 72 h
  viability at 0.000333 µM: 99.9%
[2]; read-out: % viable, PC3-TxR, no LGT-E pre-treatment (Table 4), docetaxel 1 nM 72 h
  viability at 0.001 µM: 99.2%
[2]; read-out: % viable, PC3-TxR, no LGT-E pre-treatment (Table 4), docetaxel 3.33 nM 72 h
  viability at 0.00333 µM: 98.5%
[2]; read-out: % viable, PC3-TxR, no LGT-E pre-treatment (Table 4), docetaxel 10 nM 72 h
  viability at 0.01 µM: 76.7%
[2]; read-out: % viable, PC3-TxR, no LGT-E pre-treatment (Table 4), docetaxel 33.3 nM 72 h
  viability at 0.0333 µM: 32.9%
[2]; read-out: % viable, PC3-TxR, no LGT-E pre-treatment (Table 4), docetaxel 100 nM 72 h
  viability at 0.1 µM: 13.4%
[2]; read-out: % viable, PC3-TxR, no LGT-E pre-treatment (Table 11, Example 4), docetaxel 0.001 nM 72 h
  viability at 1 pM: 100%
[2]; read-out: % viable, PC3-TxR, no LGT-E pre-treatment (Table 11, Example 4), docetaxel 0.1 nM 72 h
  viability at 0.0001 µM: 98.7%
[2]; read-out: % viable, PC3-TxR, no LGT-E pre-treatment (Table 11, Example 4), docetaxel 0.333 nM 72 h
  viability at 0.000333 µM: 99.9%
[2]; read-out: % viable, PC3-TxR, no LGT-E pre-treatment (Table 11, Example 4), docetaxel 1 nM 72 h
  viability at 0.001 µM: 99.2%
[2]; read-out: % viable, PC3-TxR, no LGT-E pre-treatment (Table 11, Example 4), docetaxel 3.33 nM 72 h
  viability at 0.00333 µM: 98.5%
[2]; read-out: % viable, PC3-TxR, no LGT-E pre-treatment (Table 11, Example 4), docetaxel 10 nM 72 h
  viability at 0.01 µM: 76.7%
[2]; read-out: % viable, PC3-TxR, no LGT-E pre-treatment (Table 11, Example 4), docetaxel 33.3 nM 72 h
  viability at 0.0333 µM: 32.9%
[2]; read-out: % viable, PC3-TxR, no LGT-E pre-treatment (Table 11, Example 4), docetaxel 100 nM 72 h
  viability at 0.1 µM: 13.4%
[2]; read-out: IC50 of drug when cells pre-treated with Chemosensitizing Agent before drug treatment, docetaxel, LGT-E 25 μg/ml pre-treatment
  IC50: 2.19 nM and 0.00177 µg/mL
[2]; read-out: IC50 of drug when cells treated with drug only, docetaxel, line of LGT-E 25 μg/ml
  IC50: 18.3 nM and 0.0148 µg/mL
